Measured values taken from BindingDB's records for doi:10.7270/Q28G8J4C (Broad Institute, 2009).

What follows are compounds tested against T1, POsterior Segregation (Caenorhabditis elegans, UniProt G5EF15) (assay: inhibitors of POS-1/mex-3 RNA binding, dose response, biochemical, fluorescence polarization (AID 1964)).
T1 sequence (G5EF15 whole entry): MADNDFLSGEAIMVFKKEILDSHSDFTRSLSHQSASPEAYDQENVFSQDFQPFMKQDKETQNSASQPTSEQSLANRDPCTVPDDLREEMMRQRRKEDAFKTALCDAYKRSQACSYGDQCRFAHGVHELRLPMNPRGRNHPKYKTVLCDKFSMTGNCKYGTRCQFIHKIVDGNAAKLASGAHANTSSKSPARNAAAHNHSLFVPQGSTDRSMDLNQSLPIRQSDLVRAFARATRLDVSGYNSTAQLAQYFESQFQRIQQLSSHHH
With `COc1ccc(C2C(C(=O)c3ccco3)C(=O)C(=O)N2c2nnc(C)s2)cc1OC` (stereo unspecified) [2-(3,4-dimethoxyphenyl)-3-(furan-2-carbonyl)-4-hydroxy-1-(5-methyl-1,3,4-thiadiazol-2-yl)-2H-pyrrol-5-one] the EC50 was > 300 µM.
For `COc1ccc(C2C3=C(CC(C)CC3=O)OC(=N)C2C#N)c(OC)c1OC` (stereo unspecified) [2-amino-5-keto-7-methyl-4-(2,3,4-trimethoxyphenyl)-4,6,7,8-tetrahydrochromene-3-carbonitrile], the EC50 was > 300 µM.
Compound `COc1ccc(C2C3=C(CC(C)(C)CC3=O)OC(=N)C2C#N)cc1` (stereo unspecified) [2-amino-4-(4-methoxyphenyl)-7,7-dimethyl-5-oxo-6,8-dihydro-4H-1-benzopyran-3-carbonitrile] has an EC50 of 69.7 µM.
In the case of `CC(=O)C1C(c2ccccc2)=NC(=O)NC1c1ccc(O)c(O)c1` (stereo unspecified) [4-[3,4-bis(oxidanyl)phenyl]-5-ethanoyl-6-phenyl-3,4-dihydro-1H-pyrimidin-2-one], the EC50 is reported as > 300 µM.
With `CCN(CC)CCN1C(=O)C(=O)C(C(=O)c2cc3cccc(OC)c3o2)C1c1ccc(F)cc1` (stereo unspecified) [1-(2-Diethylamino-ethyl)-5-(4-fluoro-phenyl)-3-hydroxy-4-(7-methoxy-benzofuran-2-carbonyl)-1,5-dihydr o-pyrrol-2-one] the EC50 was > 300 µM.
With `Cc1c(NC=C2C(=O)NC(=O)N(Cc3ccco3)C2=O)c(=O)n(-c2ccccc2)n1C` [(5E)-1-(2-furfuryl)-5-[[(3-keto-1,5-dimethyl-2-phenyl-3-pyrazolin-4-yl)amino]methylene]barbituric acid] the EC50 was > 300 µM.
`O=[N+]([O-])c1cc([CH+][N-]n2c(O)csc2=S)ccc1Cl` [3-[(4-chloranyl-3-nitro-phenyl)methylideneamino]-2-sulfanylidene-1,3-thiazolidin-4-one] was tested, and the EC50 was 18.6 µM.
With `COc1cc(C2C3=C(CCCC3=O)OC(=N)C2C#N)cc2c1OCO2` (stereo unspecified) the EC50 was > 300 µM.
In the case of `C=CCOc1cccc(C2C(C(=O)c3ccco3)C(=O)C(=O)N2Cc2ccco2)c1` (stereo unspecified) [1-(2-furanylmethyl)-3-[2-furanyl(oxo)methyl]-4-hydroxy-2-(3-prop-2-enoxyphenyl)-2H-pyrrol-5-one], the EC50 is reported as > 300 µM.
`CC(C)(C)OC(=O)N1CCC2=C(C#N)C(=N)C(C#N)(C#N)[C@H](c3cccnc3)[C@H]2C1` [(8S,8aR)-6-amino-5,7,7-tricyano-8-(3-pyridinyl)-1,3,8,8a-tetrahydroisoquinoline-2-carboxylic acid tert-butyl ester] showed an EC50 of 61.7 µM.
For `Brc1ccc(C2=Nc3ncnn3C(c3ccco3)C2)cc1` (stereo unspecified), the EC50 was > 300 µM.
`Cc1ccc(NNC2=Nc3ccccc3C2=O)cc1` [2-[(4-methylphenyl)hydrazo]-3-indolone] was tested, and the EC50 was 16 µM.
With `C=CCN1C(=O)NC(=O)C(=CCC=Nc2ccccc2)C1=O` [(5Z)-5-[(E)-3-phenylazanylprop-2-enylidene]-1-prop-2-enyl-1,3-diazinane-2,4,6-trione] the EC50 was > 300 µM.
Work on `c1ccc(CN=Nc2nc3ccccc3[nH]2)nc1` yielded an EC50 of 72.9 µM.
`CC1(C)CC(=O)C2Sc3ccccc3N=C2C1` (stereo unspecified) [2,2-Dimethyl-2,3-dihydro-1H,10H-phenothiazin-4-one] was tested, and the EC50 was 43.9 µM.
`CN(C)[C@@H]1C(=O)C(C(N)=O)C(=O)[C@@]2(O)C(=O)C3C(=O)c4c(O)cccc4[C@@](C)(O)C3C(O)C12` (stereo partly specified) [SMR000875333] was tested, and the EC50 was 54.1 µM.
Work on `O=C(Cc1nc2ccccc2n(-c2ccccc2)c1=O)c1ccccc1` [(3Z)-3-phenacylidene-1-phenyl-4H-quinoxalin-2-one] yielded an EC50 of 78.2 µM.
With `C=CCOc1cccc(C2C(C(=O)c3ccc(C)o3)C(=O)C(=O)N2c2nnc(C)s2)c1` (stereo unspecified) [3-(5-methylfuran-2-yl)carbonyl-1-(5-methyl-1,3,4-thiadiazol-2-yl)-4-oxidanyl-2-(3-prop-2-enoxyphenyl)-2H-pyrrol-5-one] the EC50 was > 300 µM.
In the case of `COc1cccc(C2C3=C(CC(c4ccco4)CC3=O)OC(=N)C2C#N)c1OCc1ccc(F)cc1` (stereo unspecified) [SMR000021029], the EC50 is reported as > 300 µM.
Compound `CC1=NC(c2ccccc2)C(C#N)(C#N)C(C#N)(C#N)C1` (stereo unspecified) [SMR000037705] has an EC50 of 3.14 µM.
`Cc1nnc(SC(=Cc2ccc(OCc3ccc(C(=O)O)cc3)cc2)C(=O)O)[nH]1` [4-[[4-[(E)-2-[(5-methyl-1H-1,2,4-triazol-3-yl)sulfanyl]-3-oxidanyl-3-oxidanylidene-prop-1-enyl]phenoxy]methyl]benzoic acid] was tested, and the EC50 was 17.8 µM.
In the case of `COC(=O)c1[nH]c2cc(OC)c(OC)cc2c1CN=Nc1ccccc1` [methyl (3Z)-5,6-dimethoxy-3-[(2-phenylhydrazinyl)methylidene]indole-2-carboxylate], the EC50 is reported as 20 µM.
`CCCCN1C(=O)/C(=C2/Sc3ccccc3N2C)SC1=Nc1nnc[nH]1` [SMR000282142] was tested, and the EC50 was 58.7 µM.
With `O=CC(C=Nc1ccccn1)c1nc2cc(Cl)ccc2o1` (stereo unspecified) [(Z)-2-(5-chloranyl-1,3-benzoxazol-2-yl)-3-(pyridin-2-ylamino)prop-2-enal] the EC50 was 67.7 µM.
In the case of `Cc1ccc(Cl)c2c1=NC(=O)C=2NNc1ccccc1`, the EC50 is reported as 18.6 µM.
With `Cc1[nH]n(C(N)=S)c(=O)c1N=Nc1ccc(S(N)(=O)=O)cc1` [3-methyl-5-oxidanylidene-4-[(4-sulfamoylphenyl)diazenyl]-4H-pyrazole-1-carbothioamide] the EC50 was 19.7 µM.
`O=C1C(=Nc2ccccc2O)C(Cl)C(=O)N1c1ccccc1` (stereo unspecified) [3-Chloro-4-(2-hydroxy-phenylamino)-1-phenyl-pyrrole-2,5-dione] was tested, and the EC50 was > 300 µM.
For `CN(C)CCCNC=C1C(=O)NC(=O)N(CCc2ccc(F)cc2)C1=O` [(5E)-5-[[3-(dimethylamino)propylamino]methylene]-1-[2-(4-fluorophenyl)ethyl]barbituric acid], the EC50 was > 300 µM.
`Cc1ccc(C2C(C(=O)c3ccco3)C(=O)C(=O)N2c2nnc(C)s2)cc1` (stereo unspecified) [3-(furan-2-carbonyl)-4-hydroxy-2-(4-methylphenyl)-1-(5-methyl-1,3,4-thiadiazol-2-yl)-2H-pyrrol-5-one] was tested, and the EC50 was > 300 µM.
With `COc1cc(C2C3=C(CC(C)(C)CC3=O)OC(=N)C2C#N)cc2c1OCO2` (stereo unspecified) the EC50 was > 300 µM.
Compound `CSc1nnc(N2C(=O)C(=O)C(C(=O)c3ccco3)C2c2ccc(F)cc2)s1` (stereo unspecified) [2-(4-fluorophenyl)-3-(furan-2-carbonyl)-4-hydroxy-1-(5-methylsulfanyl-1,3,4-thiadiazol-2-yl)-2H-pyrrol-5-one] has an EC50 of 150 µM.
With `O=C(Cc1nc2cc(Cl)ccc2oc1=O)c1ccco1` [(3Z)-6-chloranyl-3-[2-(furan-2-yl)-2-oxidanylidene-ethylidene]-4H-1,4-benzoxazin-2-one] the EC50 was > 300 µM.
For `Cc1c(NC=C2C(=O)NC(=O)N(Cc3ccccc3)C2=O)c(=O)n(-c2ccccc2)n1C` [(5E)-1-benzyl-5-[[(1,5-dimethyl-3-oxo-2-phenylpyrazol-4-yl)amino]methylidene]-1,3-diazinane-2,4,6-trione], the EC50 was > 300 µM.
In the case of `CN1C(=O)/C(=C/c2ccc(-c3ccccc3[N+](=O)[O-])o2)S/C1=N/c1ccc(Cl)c(C(=O)O)c1` [2-Chloro-5-[3-methyl-5-[1-[5-(2-nitro-phenyl)-furan-2-yl]-meth-(Z)-ylidene]-4-oxo-thiazolidin-(2Z)-ylideneamino]-benzoic acid], the EC50 is reported as 36.3 µM.
Compound `O=[N+]([O-])c1cc/c(=N\c2ccccc2O)c2no[nH]c1-2` [MLS001206694] has an EC50 of 24.4 µM.
`O=C1N=c2ccccc2=C1NNc1cccc(Cl)c1` [(3E)-1H-indole-2,3-dione 3-[(3-chlorophenyl)hydrazone]] gave an EC50 of 125 µM.
With `COc1cccc(C2C3CN(C)CCC3=C(C#N)C(=N)C2(C#N)C#N)c1OC` (stereo unspecified) [6-Amino-8-(2,3-dimethoxy-phenyl)-2-methyl-2,3,8,8a-tetrahydro-1H-isoquinoline-5,7,7-tricarbonitrile] the EC50 was 2.18 µM.
`N#CC1C(=N)OC2=C(C(=O)CC(c3ccccc3)C2)C1c1ccc2c(c1)OCO2` (stereo unspecified) was tested, and the EC50 was > 300 µM.
`COC1=CC([N+](=O)[O-])=CC(/C=N/NC(=O)CC#N)C1=O` (stereo unspecified) was tested, and the EC50 was > 300 µM.
`CCOC(=O)c1c(NC=C2C(=O)NC(=S)NC2=O)sc(C)c1C` [ethyl 2-[[4,6-bis(oxidanylidene)-2-sulfanylidene-1,3-diazinan-5-yl]methylideneamino]-4,5-dimethyl-thiophene-3-carboxylate] was tested, and the EC50 was > 300 µM.
`O=C(CC(=O)c1ccccc1)C(=O)NNC(=O)c1ccccc1[N+](=O)[O-]` [2-Nitro-benzoic acid N'-(2-hydroxy-4-oxo-4-phenyl-but-2-enoyl)-hydrazide] gave an EC50 of 70 µM.
Compound `C=CCn1c(=O)c(=Cc2ccc(C)o2)s/c1=C(\C#N)C(=O)c1ccccc1` [2-[3-allyl-4-keto-5-[(5-methyl-2-furyl)methylene]thiazolidin-2-ylidene]-3-keto-3-phenyl-propionitrile] has an EC50 of 30.7 µM.
In the case of `COc1ccc(N=C(C(=C(Cl)C(Cl)Cl)[N+](=O)[O-])n2nnc3ccccc32)cc1` [N-[(1E)-1-(1-benzotriazolyl)-3,4,4-trichloro-2-nitrobuta-1,3-dienyl]-4-methoxyaniline], the EC50 is reported as 88.5 µM.
`C=c1cc(O)c(CN(C)C)c2oc(=Cc3ccco3)c(O)c12` [(2Z)-7-[(dimethylamino)methyl]-2-(furan-2-ylmethylidene)-6-hydroxy-4-methyl-1-benzofuran-3-one] gave an EC50 of 32.1 µM.
For `COC(=O)c1ccc(-n2c(C)cc(CN=Nc3nc(C)cc(=O)[nH]3)c2C)cc1` [SMR000364461], the EC50 was > 300 µM.
With `c1ccc(C2=NNC(c3ccccn3)N=N2)nc1` (stereo unspecified) [SMR000549436] the EC50 was 25.3 µM.
In the case of `Cc1ccc(N=CC2Sc3ccccc3NC2=O)cc1` (stereo unspecified) [(2E)-2-(p-toluidinomethylene)-4H-1,4-benzothiazin-3-one], the EC50 is reported as > 300 µM.
For `Cc1ccccc1NN=C1C(=O)N(C)c2ccccc21` [MLS001203477], the EC50 was > 300 µM.
For `O=C(NN=Cc1c(O)n(-c2ccccc2)c(=S)[nH]c1=O)c1ccc(O)cc1` [N'-[(1Z)-(4,6-dioxo-1-phenyl-2-thioxohexahydropyrimidin-5-yl)methylene]-4-hydroxybenzohydrazide], the EC50 was > 300 µM.
`COc1ccc(C2C3=C(CCCC3=O)OC(=N)C2C#N)cc1OC` (stereo unspecified) [2-amino-4-(3,4-dimethoxyphenyl)-5-keto-4,6,7,8-tetrahydrochromene-3-carbonitrile] was tested, and the EC50 was > 300 µM.
For `Cc1cc(C(=O)NN=CC2C=C(Cl)C=C([N+](=O)[O-])C2=O)[nH]n1` (stereo unspecified) [SMR000414694], the EC50 was > 300 µM.
